Experimental data from PMC5430874 (Scientific Reports, 2017).
Residue numbers refer to the chain shown, from its start. Where two headings read alike, the source gives them in different places.

How the values were obtained:
Assay type in all cases: cell-based
GPR139 E108A^3×32 = biological target: T1, GPR139 E108A^3×32 (Homo sapiens, UniProt Q6DWJ6, E108A); assay: Fluo-4 Ca2+-assay, GPR139 mutant E108A; details: for EC50: E108A mutant
T1 construct: mGluR5 signal peptide (N); expressed in transfected cells; host or cells: HEK293
T1 sequence (Q6DWJ6 2-353 E108A limits assumed): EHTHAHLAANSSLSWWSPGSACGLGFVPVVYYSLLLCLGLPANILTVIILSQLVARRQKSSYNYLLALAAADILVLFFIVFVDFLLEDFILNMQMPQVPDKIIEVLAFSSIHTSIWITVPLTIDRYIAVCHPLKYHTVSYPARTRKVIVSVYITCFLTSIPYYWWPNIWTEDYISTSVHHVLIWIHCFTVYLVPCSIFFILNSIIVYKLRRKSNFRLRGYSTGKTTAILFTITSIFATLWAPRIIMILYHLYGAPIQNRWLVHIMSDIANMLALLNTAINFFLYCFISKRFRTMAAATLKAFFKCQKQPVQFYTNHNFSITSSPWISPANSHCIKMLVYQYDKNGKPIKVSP
From the text: (§1) To study the influence of specific amino acids in the predicted binding pocket on receptor function, the desired mutations were introduced into an N-terminally c-myc-tagged wild type human GPR139 (NM_001002911.3) in the pEGFP-N1 vector (BD Biosciences)[32], [33]. As previously described, these plasmids carry the signal peptide of mGluR5 to promote cell surface expression followed by a c-myc epitope to enable detection of total and surface expression by ELISA, followed by an engineered MluI and NotI site for easy insertion of the receptor of interest. Furthermore, the start-codon in the GPR139 sequence was deleted to ensure c-myc-tagging. Mutagenesis was designed in Serial Cloner 2.6 (© Franck Perez [SerialBasics]) and carried out by GenScript (USA). All mutated residues are illustrated in Supplementary Fig. 1b. An untagged GPR139(WT) in pEGFP-N1 was also generated to ensure that the c-myc-tag had no influence on GPR139(WT) function.
(§2) All GPR139 mutants were transfected into HEK293 cells. The HEK293 cells were grown in Dulbecco’s modified Eagle’s medium (DMEM) (Gibco, 41965) supplemented with 10% dialyzed fetal bovine serum (Gibco, 26400, United States origin), 100 units/mL penicillin and 100 μg/mL streptomycin (Gibco, 15140). HEK293 cells were reverse transfected using Lipofectamine2000 (Invitrogen). More specifically two mixtures were made: 1) 10 ng DNA/well + 25 μL Opti-MEM/well and 2) […] Lipofectamine2000/well + 25 μL Opti-MEM/well. The two mixtures were mixed and 50 μL/well was added directly in black 96-well plates with flat clear bottoms for the Fluo-4 Ca^2+-assay (Corning, Falcon, 353219) or in white Opaque 96-well Microplate (PerkinElmer Life, 6005680) for ELISA. 100 μL containing 20,000 cells were added to each well and incubated 48 hours before assays. All plates were coated with poly-D-lysine.
(§3) Compound 1a (1a) was kindly provided by H. Lundbeck A/S, Denmark. […] Both compounds were dissolved to 20 mM in DMSO (Sigma, D2650) and subsequently diluted in a HEPES buffer (HBSS (Gibco, 14025) supplemented with 20 mM HEPES + 1 mM MgCl2 + 1 mM CaCl2, pH = 7.4) to a final concentration of 0.5% DMSO in the Fluo-4 Ca^2+-assay. The DMSO level was kept constant for all concentrations of both compounds. DMSO was confirmed not to have any activity by itself at this concentration. L-Trp (T0254) and L -Phe (P2126) were obtained from Sigma-Aldrich and dissolved in buffer.
(§4) The Ca^2+ measurements were preformed using the Fluo-4 NW Calcium Assay Kit (Invitrogen, Molecular Probes, F36206) as previously described. Briefly, the Fluo-4 dye loading solution was prepared according to the manufacturer’s instructions by dissolving it in HEPES-buffer supplemented with 2.5 mM probenecid. 50 μL dye loading solution was added to each well. Cells were incubated with the Fluo-4 dye for 60 min at 37 °C, then washed with 100 μL HEPES-buffer. 100 μL HEPES-buffer supplemented with 2.5 mM probenecid was then added to each well and incubated in 10 minutes at 37 °C before measurement. […] Intracellular calcium changes were recorded as indicated on either a NOVOstar (BMG Labtech) at 37 °C with an excitation filter of 485 nm and an emission filters 520 nm or a FlexStation 3 Benchtop Multi-Mode Microplate Reader (Molecular Devices) at 37 °C with an excitation wavelength of 485 nm and emission of 525 nm.
(§5) All pharmacological data have been analyzed by using Prism 6.0 (GraphPad Software Inc., San Diego). Fitting of concentration response curves was performed by non-linear regression log(agonist) vs. response (four parameters). Pooled data are shown with standard error of the mean (S.E.M.) and data showing one representative are shown with standard deviation (S.D.). Changes in potency (pEC50) and span of myc-GPR139(WT) in comparison to untagged GPR139(WT) was statistically analyzed with a paired t-test and significance was accepted at p < 0.05. The ELISA data were normalized to surface expression of myc-GPR139(WT) (100%). […]

myc-GPR139(WT) = biological target: T2, myc-GPR139(WT) (Homo sapiens, UniProt Q6DWJ6); assay: Fluo-4 Ca2+-assay, myc-tagged wild-type GPR139 in HEK293; details: for Emax: HEK293; for EC50: Fluo-4 Ca2+-assay
T2 construct: mGluR5 signal peptide (N); expressed in transfected cells; host or cells: HEK293
T2 sequence (Q6DWJ6 2-353 limits assumed): T1 sequence (Q6DWJ6 2-353 E108A limits assumed) with A107E
From the text: as §1, §2, §3, §4, §5

GPR139 F109L^3×33 = biological target: T3, GPR139 F109L^3×33 (Homo sapiens, UniProt Q6DWJ6, F109L); assay: Fluo-4 Ca2+-assay, GPR139 mutant F109L; details: for EC50: F109L mutant
T3 construct: mGluR5 signal peptide (N); expressed in transfected cells; host or cells: HEK293
T3 sequence (Q6DWJ6 2-353 F109L limits assumed): T1 sequence (Q6DWJ6 2-353 E108A limits assumed) with A107E, F108L
From the text: as §1, §2, §3, §4, §5

[1] = only one experiment, read-out: pEC50 (converted)
[2] = WT, HEK293, three independent experiments, read-out: pEC50 ± SEM (converted)
[3] = three independent experiments, read-out: pEC50 ± SEM (converted)

Structure (SMILES)	EC50 (GPR139 E108A^3×32; [1]) [µM]	Emax (GPR139 E108A^3×32; E108A, normalized to buffer (0%) and 30 mM Phe (100%) on WT, n=1, read-out: Emax) [%]	Emax (myc-GPR139(WT); WT, normalized to buffer (0%) and 30 mM Phe (100%)) [%]	EC50 (myc-GPR139(WT); [2]) [µM]	EC50 (GPR139 F109L^3×33) [µM]	Emax at 30000 µM (GPR139 F109L^3×33; F109L, at 30 mM, normalized to buffer (0%) and 30 mM Phe (100%) on WT) [%]	EC50 (GPR139 E108A^3×32; [3]) [µM]	Emax (GPR139 E108A^3×32; read-out: Emax ± SEM) [%]	Emax (myc-GPR139(WT)) [%]	Emax (GPR139 F109L^3×33) [%]	change of potency (GPR139 F109L^3×33; F109L mutant versus WT)	Emax (GPR139 E108A^3×32; E108A, normalized to buffer (0%) and 10 mM Trp (100%) on WT, n=1, read-out: Emax) [%]	Emax (myc-GPR139(WT); WT, normalized to buffer (0%) and 10 mM Trp (100%)) [%]	Emax at 10000 µM (GPR139 F109L^3×33; F109L, at 10 mM, normalized to buffer (0%) and 10 mM Trp (100%) on WT) [%]	change of potency (GPR139 E108A^3×32; E108A mutant versus WT)	Emax (GPR139 E108A^3×32; E108A, normalized to buffer (0%) and 8 μM 1a (100%) on WT, read-out: Emax ± SEM) [%]	EC50 (myc-GPR139(WT); myc-tagged wild-type (WT) receptor, read-out: EC50) [µM]	Emax at 8 µM (GPR139 F109L^3×33; F109L, at 8 μM, normalized to buffer (0%) and 8 μM 1a (100%) on WT) [%]
N[C@@H](Cc1ccccc1)C(=O)O [L-Phe, phenylalanine]	251	127	100	372	> 31600	72 ± 9	–	–	–	–	–	–	–	–	–	–	–	–
C[C@@H](NC(=O)CNC(=O)c1cccc(Cl)c1)c1ccccc1 (racemic) [Compound 7c]	–	–	–	0.0479	3.98	–	0.151	112 ± 10	100	102 ± 3	~ 100 fold	–	–	–	–	–	–	–
N[C@@H](Cc1c[nH]c2ccccc12)C(=O)O [L-Trp, tryptophan]	166	–	–	200	> 10000	–	–	–	–	–	–	125	100	60 ± 5	–	–	–	–
COc1cc(OC)cc(C(=O)NNC(=O)Nc2cccc3ccccc23)c1 [Compound 1a]	–	–	–	0.234	> 7.94	–	0.209	–	–	–	–	–	–	–	no effect	151 ± 9	0.67	42 ± 16
